Data reported in article PMC9926234, “Iterative computational design and crystallographic screening identifies potent inhibitors targeting the Nsp3 macrodomain of SARS-CoV-2” (Proceedings of the National Academy of Sciences of the …, 2023).
“And” between values parts separate entries of the source, which are not always exact repeats. Equal entries are not always repeated. Where two headings read alike, the source gives them in different places.

Target: SARS-CoV-2 NSP3 Mac1 (Severe acute respiratory syndrome coronavirus 2, UniProt P0DTD1)
Type: binding
Conditions: for Refined occupancy: ligand occupancy after refinement (phenix.refine)
[1] = PanDDA event map 1-BDC, crystal soak, Compound_concentration 100 mM, PanDDA run dmso_34 or nohits_35 per dataset
[2] = PanDDA event map, 1 minus background density correction, crystal soaking of Mac1
[3] = crystal soak, Compound_concentration 100 mM, Echo dispense 40 nl, PanDDA run dmso_34 or nohits_35 per dataset
[4] = ligand modeled in this dataset, crystal soak, Compound_concentration 100 mM
[5] = PanDDA event map, crystal soak, Compound_concentration 100 mM, Echo_dispense_volume 40 nl
[6] = crystal soak, Compound_concentration 100 mM, Echo_dispense_volume 40 nl, PanDDA run (background map) dmso_34, nohits_35 or nohits_62
[7] = ligand modeled, crystal soak, Compound_concentration 100 mM, Echo_dispense_volume 40 nl
[8] = PanDDA 1-BDC value of the event, crystal soak, compound concentration 100 mM, per dataset
[9] = PanDDA event map, 1-BDC of the hit dataset, crystal soak, compound concentration 100 mM
[10] = crystal soak, compound concentration 100 mM, per dataset
[11] = PanDDA 1-BDC (background density correction) of the event, crystal soak 100 mM, PanDDA run dmso_34
[12] = crystal soak, compound concentration 100 mM, PanDDA run dmso_34, series docking_lead-like_1
[13] = PanDDA event map background density correction, crystal soak, compound concentration 100 mM
[14] = ligand modeled in the crystal structure, crystal soak, compound concentration 100 mM
[15] = PanDDA 1-BDC of the event, compound stock 100 mM, Echo dispense volume 80 nl
[16] = crystal soak, compound stock 100 mM, Echo dispense volume 80 nl
[17] = ligand modeled in the crystal structure, crystal soak 100 mM, PanDDA run dmso_34
[18] = ligand modeled from this dataset, compound concentration 100 mM
[19] = ligand modeled in the crystal structure, crystal soak, compound concentration 100 mM, per dataset

Compound	1-BDC (PanDDA) [2]	Refined occupancy (crystal soaking of Mac1)	1-BDC [5]	PanDDA hit? [6]	Modeled? [7]	also measured
O=C(Nc1ccc(C(=O)N[C@@H]2c3cccc(O)c3C[C@H]2C(=O)O)cc1)NC1CC1 [Compound E2160]	0.1	20	–	–	–	1-BDC [1]: 0.08 and 0.1; PanDDA hit? [3]: TRUE; Modeled? [4]: TRUE
CCC(=O)Nc1nc(C)c(S(=O)(=O)Nc2cccc(C#N)c2)s1 [Compound Z0611]	0.33	66	0.33	TRUE	TRUE	–
Nc1ncc(S(=O)(=O)N2CC(F)(F)C[C@H]2C(=O)O)cn1 [Compound Z1314]	–	38	–	–	–	1-BDC [8]: 0.49; 1-BDC [9]: 0.3; 1-BDC [2]: 0.19; PanDDA hit? [10]: TRUE
CC(C)c1noc(CCc2nc(-c3ccnc4[nH]ccc34)no2)n1 [Compound Z1347]	–	–	–	–	–	1-BDC [11]: 0.03; PanDDA hit? [12]: TRUE
Nc1ccc(C(=O)N2CC(c3nnc(S)o3)C2)c(Cl)n1 [Compound Z1366]	–	–	–	–	–	1-BDC [13]: 0.1
O=C(O)CC1CC(CNC(=O)c2cncc3sccc23)C1 (centres unmarked) [Compound Z1558]	0.24	48	0.24	TRUE	TRUE	Comment (ligand modelled in the crystal structure) (what was observed in density instead of the vendor structure): C4 substituted thiophene
CC(Cc1ccco1)C(=O)N[C@@H](CC(=O)O)c1ccc2c(c1)OCO2 (some centres unmarked) [Compound Z1877]	0.15	30	–	–	–	1-BDC [13]: 0.15; Modeled? [14]: TRUE
CC1(C)CN(c2ncnc3[nH]c4ccccc4c23)CC(CC(=O)O)O1 (centres unmarked) [Compound Z2215]	0.05	10	–	–	–	1-BDC (PanDDA 1-BDC of the event, compound stock 100 mM, Echo dispense volume 40 nl): 0.05; 1-BDC [1]: 0.04; PanDDA hit? [3]: TRUE; PanDDA hit? (crystal soak, compound stock 100 mM, Echo dispense volume 40 nl): TRUE; Modeled? (ligand modeled in structure, compound stock 100 mM, Echo dispense volume 40 nl): TRUE
Cc1oc(CNc2ncnc3[nH]c4ccccc4c23)cc1C(=O)O [Compound Z3124]	0.09	18	–	–	–	1-BDC [13]: 0.09; Modeled? [14]: TRUE
CC(F)(F)c1cncc(C(=O)NC(Cc2cncc(Br)c2)C(=O)O)c1 (centres unmarked) [Compound Z3140]	0.1	20	–	–	–	1-BDC [13]: 0.1; Modeled? [14]: TRUE
O=C(NS(=O)(=O)Cc1ccc(Br)c(F)c1)c1cnn2ccccc12 [Compound Z3209]	0.38	76	0.38	TRUE	TRUE	–
O=C(CCCCc1ccc(Br)cc1)NC(CCc1cn[nH]c1)C(=O)O (centres unmarked) [Compound Z3213]	–	–	–	–	–	1-BDC [13]: 0.11
O=C(O)CC(NC(=O)c1cc(F)cc2[nH]cnc12)c1ccc(Br)cc1 (centres unmarked) [Compound Z3722]	0.29	40	0.29	TRUE	TRUE	–
O=C(O)C(F)(F)F.O=C(O)C1CN(c2ncnc3[nH]c4ccccc4c23)CC12CCC2 (centres unmarked) [Compound Z4706]	0.14	28	0.14	TRUE	TRUE	1-BDC [15]: 0.21; 1-BDC [1]: 0.17; PanDDA hit? [3]: TRUE; PanDDA hit? [16]: TRUE
O=C1OCCN1C1CCN(c2ncnc3[nH]c4cc(F)ccc4c23)C1 (centres unmarked) [Compound Z5107]	0.06	12	0.06	TRUE	TRUE	1-BDC [15]: 0.09; 1-BDC [1]: 0.06; PanDDA hit? [3]: TRUE; PanDDA hit? [16]: TRUE
O=C(Cc1ccc(-n2cccn2)cc1)OCC1CCCNC1=O (centres unmarked) [Compound Z5505]	–	16	–	–	–	1-BDC (PanDDA event map background density correction, crystal soak, Compound_concentration 100 mM, PanDDA run dmso_34): 0.08; 1-BDC [2]: 0.08; PanDDA hit? (crystal soak, Compound_concentration 100 mM, Echo dispense 40 nl, PanDDA run dmso_34): TRUE; Modeled? (ligand modeled in crystal structure, crystal soak, Compound_concentration 100 mM, PanDDA run dmso_34): TRUE
O=C(O)Cc1cccc(CNC(=O)c2ncnc3ccsc23)c1 [Compound Z5712]	0.32	64	0.32	TRUE	TRUE	–
Nc1ncnc2c1ncn2CCCc1ccsc1 [Compound Z5972]	–	–	–	–	–	1-BDC [11]: 0.16; PanDDA hit? [12]: TRUE
CNc1cc(-c2noc(CN3CCCC3=O)n2)ncn1 [Compound Z6028]	–	–	–	–	–	1-BDC [11]: 0.05; PanDDA hit? [12]: TRUE

Compound	1-BDC (PanDDA) [2]	Refined occupancy (crystal soaking of Mac1)	1-BDC [5]	PanDDA hit? [6]	Modeled? [7]	also measured
O=C(O)CC1CCN(c2ncnc3[nH]c4ccccc4c23)CCC1(F)F (centres unmarked) [Compound Z6423]	–	–	–	–	–	1-BDC [1]: 0.07; PanDDA hit? [3]: TRUE
O=C(O)Cc1ccc(CNC(=O)c2ccnc3ccsc23)cc1 [Compound Z6625]	0.12	24	0.12	TRUE	TRUE	–
COc1cncc(C(=O)NCCNC(=O)c2ncccc2O)c1 [Compound Z6634]	0.14	28	0.14	TRUE	TRUE	–
O=C(NC1C=CC(C(=O)O)C1)c1ncnc2sccc12 (centres unmarked) [Compound Z6645]	0.4	80	–	–	–	1-BDC [13]: 0.4; Modeled? [14]: TRUE
CC(=O)Nc1nc(C)c(S(=O)(=O)Nc2ccc(C)c(C#N)c2)s1 [Compound Z6707]	0.23	46	0.23	TRUE	TRUE	–
Cc1oc(C(N)=O)cc1S(=O)(=O)Nc1ccc(Br)c(C#N)c1 [Compound Z6708]	0.26	52	–	–	–	1-BDC [13]: 0.26; Modeled? [14]: TRUE
Cn1ncc2ncnc(NS(=O)(=O)Cc3ccc(CC#N)cc3)c21 [Compound Z6742]	0.31	62	–	–	–	1-BDC [13]: 0.31; Modeled? [14]: TRUE
Cc1oc(C(N)=O)cc1S(=O)(=O)Nc1cnc(Cl)c(C#N)c1 [Compound Z6746]	0.16	32	–	–	–	1-BDC [13]: 0.16; Modeled? [14]: TRUE
c1csc(CC2CCN(c3ncnc4[nH]ccc34)C2)n1 (centres unmarked) [Compound Z6891]	–	60	–	–	–	1-BDC [11]: 0.3; 1-BDC [2]: 0.3; PanDDA hit? [12]: TRUE; Modeled? [17]: TRUE
Cc1oc(=O)oc1CSc1ncnc2[nH]cnc12 [Compound Z7450]	–	25	–	–	–	1-BDC [11]: 0.23; 1-BDC [2]: 0.23; PanDDA hit? [12]: TRUE; Modeled? [17]: TRUE
O=C(O)c1ccc(F)c(CNC(=O)c2ccc3[nH]ccc3c2)c1 [Compound Z7647]	0.09	18	0.09	TRUE	TRUE	–
OCc1cn(C2CCCN(c3ncnc4[nH]ccc34)C2)nn1 (centres unmarked) [Compound Z7864]	–	10	–	–	–	1-BDC [11]: 0.05; 1-BDC [2]: 0.05; PanDDA hit? [12]: TRUE; Modeled? [17]: TRUE
O=C(NC1c2cccc(O)c2CC1C(=O)O)c1ccc(Nc2cccnc2)cc1 (centres unmarked) [Compound Z8539_0018]	0.1	20	–	–	–	Modeled? [18]: TRUE
O=C(Nc1ccc(C(=O)NC2c3cccc(O)c3CC2C(=O)O)cn1)NC1CC1 (centres unmarked) [Compound Z8539_0054]	–	28	–	–	–	1-BDC [2]: 0.14; Modeled? [18]: TRUE
Cc1nc(Cn2cnc3c(N)nc(N)nc32)cs1 [Compound Z8569]	–	80	–	–	–	1-BDC [8]: 0.4; 1-BDC [2]: 0.4; PanDDA hit? [10]: TRUE; Modeled? [19]: TRUE
Nc1nc(N)c2ncn(Cc3csc(Cl)n3)c2n1 [Compound Z8572]	–	88	–	–	–	1-BDC [2]: 0.44; Modeled? (ligand modeled in structure, crystal soak, Compound_concentration 100 mM): TRUE
Nc1nc(N)c2ncn(Cc3csc(C4CC4)n3)c2n1 [Compound Z8585]	–	36	–	–	–	1-BDC [8]: 0.18; 1-BDC [9]: 0.4; 1-BDC [2]: 0.18; PanDDA hit? [10]: TRUE; Modeled? [19]: TRUE
CO[C@@H]1CN(c2ncnc3[nH]c4cc(F)ccc4c23)C[C@@H](CO)O1 [Compound Z8973]	0.23	60	0.23	TRUE	TRUE	1-BDC [15]: 0.25; 1-BDC [1]: 0.23; PanDDA hit? [3]: TRUE; PanDDA hit? [16]: TRUE
O=C(Nc1ccc(C(=O)N[C@H]2c3cccc(O)c3C[C@H]2C(=O)O)cc1)NC1CC1 [Compound Z9050]	0.27	54	–	–	–	1-BDC [1]: 0.21 and 0.27; PanDDA hit? [3]: TRUE; Modeled? [4]: TRUE
